Laboratory results from patent publication US6194581A, “Substituted pyridines useful as modulators of acetylcholine receptors” (Merck & Co., Inc., priority 1998, dated 2001).
Counter-ions that a name gives are not always drawn. Like-named read-outs stand apart in the source and are kept apart here.

Tests used:
[1] = test system: rat striatal slices (3H-dopamine release); format: cell-based
Description: (§1) Measurement of ^3 H-dopamine release from rat striatal slices was performed according to the method of Sacaan et al. (J. Neurochem. 59:245 (1992)). Male Sprague-Dawley rats (250-300 g) were decapitated and the striata or olfactory tubercles dissected quickly on a cold glass surface. The tissue was chopped to a thickness of 300 μm with a McIlwain tissue chopper. After chopping again at right angles the tissue was dispersed and incubated for 10 min. at 37° C. in oxygenated Kreb's buffer. ^3 H-Dopamine (40 Ci/mmol, NEN- Dupont, Boston, Mass.) was added (50 nM) and the tissue was incubated for 30 min. in Kreb's buffer containing 10 μM pargyline and 0.5 mM ascorbic acid. Aliquots of the minced tissue were then transferred to chambers of a Brandel Superfusion system in which the tissue was supported on Whatman GF/B filter discs. The tissue was then superfused with buffer at a constant flow rate of 0.3 ml/min by means of a Brandel peristaltic pump. The perfusate was collected in plastic scintillation vials in 3-min fractions, and the radioactivity was estimated by scintillation spectrophotometry. The superfusate for the first 120 min was discarded. After two baseline fractions had been collected, the superfusion buffer was switched to fresh buffer with or without compound of interest. At the end of the experiment the filter and the tissue were removed, and the radiolabeled neurotransmitter content was estimated after extraction into scintillation fluid. The fractional effiux of radiolabeled neurotransmitter was estimated as the amount of radioactivity in the perfusate fraction relative to the total amount in the tissue.
(§2) The results of studies of the effects of an invention compound (as compared to the effect of nicotine) on the release of neurotransmitters from rat brain slices are presented in Table II. The results presented in the Table are expressed as the percent fractional release.

[2] = test system: rat olfactory tubercles (3H-dopamine release); format: cell-based
Description: as §1, §2

[3] = test system: rat hippocampus slices (3H-norepinephrine release); format: cell-based
Description: as §1
(§3) Following essentially the same procedure as set forth in the preceding paragraph, the amount of ^3 H-norepinephrine released from rat hippocampus, thalamus and prefrontal cortex slices superfused with buffer containing (or lacking) compounds of interest was also measured.
as §2

[4] = test system: rat prefrontal cortex slices (3H-norepinephrine release); format: cell-based
Description: as §1, §3, §2

[5] = test system: rat thalamus slices (3H-norepinephrine release); format: cell-based
Description: as §1, §3, §2

[6] = test system: muscarinic acetylcholine receptors; assay: 3H-QNB (quinuclidinyl benzilate) displacement, rat cerebral membranes; format: binding
[7] = biological target: T1, nicotinic acetylcholine receptor (Rattus norvegicus, UniProt P09483+P12390); assay: 3H-nicotine binding/displacement, rat cerebral membranes
T1 construct: Synaptic membranes were prepared by homogenizing the cortical tissue; from tissue; host or cells: cerebral cortex synaptic membranes of male Sprague-Dawley rats
T1 sequence (P09483 31-630): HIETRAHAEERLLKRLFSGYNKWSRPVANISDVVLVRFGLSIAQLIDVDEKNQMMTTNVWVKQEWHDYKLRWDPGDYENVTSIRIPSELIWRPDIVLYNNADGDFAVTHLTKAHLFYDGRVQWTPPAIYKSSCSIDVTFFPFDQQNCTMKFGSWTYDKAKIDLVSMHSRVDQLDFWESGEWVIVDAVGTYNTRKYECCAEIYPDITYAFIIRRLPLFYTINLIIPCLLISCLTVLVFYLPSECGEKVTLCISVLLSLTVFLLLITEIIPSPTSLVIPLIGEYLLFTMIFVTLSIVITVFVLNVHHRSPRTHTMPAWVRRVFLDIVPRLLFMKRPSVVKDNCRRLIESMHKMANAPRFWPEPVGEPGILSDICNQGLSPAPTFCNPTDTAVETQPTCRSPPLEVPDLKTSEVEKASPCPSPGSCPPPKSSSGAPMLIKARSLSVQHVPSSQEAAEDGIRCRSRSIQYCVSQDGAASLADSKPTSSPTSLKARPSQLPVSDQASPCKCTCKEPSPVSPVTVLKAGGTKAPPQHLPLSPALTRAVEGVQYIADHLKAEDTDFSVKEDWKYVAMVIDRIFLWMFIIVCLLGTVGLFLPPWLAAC
T1 sequence (P12390 26-500 limits assumed): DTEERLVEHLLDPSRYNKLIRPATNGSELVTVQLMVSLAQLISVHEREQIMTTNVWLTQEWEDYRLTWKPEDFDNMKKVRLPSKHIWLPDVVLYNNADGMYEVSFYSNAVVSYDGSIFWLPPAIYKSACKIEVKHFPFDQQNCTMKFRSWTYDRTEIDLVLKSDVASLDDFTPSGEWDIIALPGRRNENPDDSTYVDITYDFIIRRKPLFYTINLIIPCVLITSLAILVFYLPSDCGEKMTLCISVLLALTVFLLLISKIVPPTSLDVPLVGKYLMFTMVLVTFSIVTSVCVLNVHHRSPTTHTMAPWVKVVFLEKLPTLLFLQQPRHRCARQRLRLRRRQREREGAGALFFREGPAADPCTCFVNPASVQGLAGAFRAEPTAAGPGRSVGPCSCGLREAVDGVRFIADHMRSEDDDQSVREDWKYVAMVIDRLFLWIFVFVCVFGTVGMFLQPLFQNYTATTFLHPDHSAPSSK
Description: ^3 H-Nicotine binding to rat cerebral membranes was performed according to modifications of the method of Flyn and Mash (J. Neurochem. 47:1948 (1986)). ^3 H-Nicotine (80 ci/mmol; New England Nuclear Corporation, Boston, Mass.) was used as the ligand for nicotinic acetylcholine receptor binding assays. All other reagents were purchased from the Sigma Chemical Co. (St. Louis, Mo.).
Male Sprague-Dawley rats (250-400 gm) were sacrificed by decapitation, the brains removed and the cerebral cortex dissected on ice. Synaptic membranes were prepared by homogenizing the cortical tissue in 20 volumes of ice-cold modified Tris buffer (50 mM Tris pH 7.4, 120 mM NaCl, 5 mM KCl, 2 mM EDTA, 1 mM PMSF) with a polytron (20 sec at setting 5-6) followed by centrifugation (15 min at 25,000×g) at 4° C. The resultant pellet was rehomogenized and centrifuged twice. The final pellet was resuspended in ice-cold assay buffer (50 mM Tris pH 7.4, 120 mM NaCl, 5 mM KCl, 2 mM CaCl2, 1 MM MgCl2) at a concentration of membrane equivalent to 1 gm wet weight cortex per 10 ml buffer. After protein determination the final membrane preparation was diluted with buffer to 3 mg protein/ml. This membrane preparation was used in either the fresh state or frozen (-70° C.) then thawed.
The binding assay is performed manually using 96-well plates, or using a Biomek automated work station (Beckman Instrument Co.). ^3 H-Nicotine was diluted in assay buffer to give a final concentration of 1.9 nM. The Biomek automated work station was programmed to automatically transfer 750 μl of assay buffer with ^3 H-nicotine, 230 μl of membrane preparation and 20 μl of solution containing the compound of interest in assay buffer, DMSO, ethanol:DMSO (1:1) or appropriate vehicle to the 96-well plate. Atropine was added to the incubation buffer at a final concentration of 3 μM to block binding to muscarinic acetylcholine receptor sites. The plates were maintained on ice for 60 min and the tissue-bound radioactivity was separated from the free by rapid filtration in a Brandel Harvester onto GF/C filters presoaked in 0.5% polyethyleneimine for at least 2 hr. The filters were washed with 4×2 ml of ice-cold assay buffer and filters were transferred to vials to which 4 ml of scintillation cocktail was added. The radioactivity was measured in a LS-6500 Beckman Liquid Scintillation Counter in an autodpm mode. Data were analyzed by log-logit transformation or non-linear regression analysis (e.g., employing GraphPad Prism, available from GraphPad Software, San Diego, Calif.) to give IC50 values. Non-specific binding was defined by 10 μM cytisine.

[8] = displacement of 1.9 nM 3H-nicotine, rat cerebral membranes, 3 μM atropine, read-out: IC50, Nicotine
[9] = displacement of 60 pM 3H-QNB, rat cerebral membranes
[10] = rat striatum slices, compound concentration not given
[11] = rat olfactory tubercles, compound concentration not given
[12] = rat hippocampus slices, compound concentration not given
[13] = rat prefrontal cortex slices, compound concentration not given
[14] = rat thalamus slices, compound concentration not given

## CN1CCCC1c1cccnc1 (stereo not drawn) [Nicotine, reference compound]
[1]
  3H-Dopamine, Striatum, percent fractional release: 2.3 ± 0.7
[2]
  3H-Dopamine, Olfactory Tubercles, percent fractional release: 2.7 ± 0.4
[3]
  3H-Norepinephrine, Hippocampus, percent fractional release: 8.2 ± 1.5
[4]
  3H-Norepinephrine, Prefrontal Cortex, percent fractional release: 2.2 ± 0.2
[5]
  3H-Norepinephrine, Thalamus, percent fractional release: 1.7

## CC(c1cccnc1)N(C)C (stereo not drawn) [α-Methyl-N,N-dimethyl-3-picolylamine]
[6]; 100 μM compound, 3H-QNB, rat cerebral membranes
  displacement of ligand with 100 μM of compound (Quinuclidinyl benzilate): Less than 20%
[7]; [8]
  IC50: 1.9 µM

## CC(NC1CC1)c1cccnc1 (stereo not drawn) [α-Methyl-N-cyclopropyl-3-picolylamine]
[6]; [9]
  IC50: > 100 µM
[7]; [8]
  IC50: > 100 µM

## c1ccc(CCCNCc2cccnc2)cc1 [N-Phenylpropyl-3-picolylamine]
[6]; [9]
  IC50: 29 µM
[7]; [8]
  IC50: 20 µM

## c1ccc(-c2cncc(CN3CCC3)c2)cc1 [5-Phenyl-3-(N-azetidinomethyl)pyridine fumarate]
[6]; [9]
  IC50: 6 µM
[7]; [8]
  IC50: 1.2 µM

## c1ccc(-c2cncc(CN3CCCC3)c2)cc1 [5-Phenyl-3-(N-pyrrolidinomethyl)pyridine]
[6]; [9]
  IC50: 11.2 µM
[7]; [8]
  IC50: 0.53 µM
[1]; [10]
  3H-Dopamine, Striatum, percent fractional release: 2.48%
[2]; [11]
  3H-Dopamine, Olfactory Tubercles, percent fractional release: 3.68%
[3]; [12]
  3H-Norepinephrine, Hippocampus, percent fractional release: 0.74%
[4]; [13]
  3H-Norepinephrine, Prefrontal Cortex, percent fractional release: 1.43%
[5]; [14]
  3H-Norepinephrine, Thalamus, percent fractional release: 1.42%

## CN(Cc1cccnc1)C1CC1 [N-Methyl-N-cyclopropyl-3-picolylamine]
[6]; [9]
  IC50: > 100 µM
[7]; [8]
  IC50: 16 µM

## Oc1ccc(-c2cncc(CN3CCCC3)c2)cc1Cl [5-(4-Hydroxy-3-chlorophenyl)-3-(N-pyrrolidinomethyl)pyridine]
[6]; [9]
  IC50: > 10 µM
[7]; [8]
  IC50: 0.043 µM
[1]; [10]
  3H-Dopamine, Striatum, percent fractional release: 6.00%
[2]; [11]
  3H-Dopamine, Olfactory Tubercles, percent fractional release: 8.75%
[3]; [12]
  3H-Norepinephrine, Hippocampus, percent fractional release: 1.91%
[4]; [13]
  3H-Norepinephrine, Prefrontal Cortex, percent fractional release: 1.82%
[5]; [14]
  3H-Norepinephrine, Thalamus, percent fractional release: 1.44%

## c1cncc(CNC2CC2)c1 [N-Cyclopropyl-3-picolylamine]
[6]; [9]
  IC50: > 100 µM
[7]; [8]
  IC50: 40 µM

## C#Cc1cncc(CN2CCCC2)c1 [5-ethynyl-3-(N-pyrrolidinomethyl)pyridine]
[6]
  IC50: > 100 µM
[7]
  IC50: 0.041 µM
[1]; [10]
  3H-Dopamine, Striatum, percent fractional release: 2.09%
[2]; [11]
  3H-Dopamine, Olfactory Tubercles, percent fractional release: 0.91%
[3]; [12]
  3H-Norepinephrine, Hippocampus, percent fractional release: 0.97%
[4]; [13]
  3H-Norepinephrine, Prefrontal Cortex, percent fractional release: 0.84%
[5]; [14]
  3H-Norepinephrine, Thalamus, percent fractional release: 0.67%

## CNC(C)c1cccnc1 (stereo not drawn) [α-Methyl-N-methyl-3-picolylamine]
[6]; [9]
  IC50: > 100 µM
[7]; [8]
  IC50: 3.6 µM

## CC(C)NC(C)c1cccnc1 (stereo not drawn) [α-Methyl-N-isopropyl-3-picolylamine]
[6]; [9]
  IC50: > 100 µM
[7]; [8]
  IC50: 19 µM

## CN(CCCc1ccccc1)Cc1cccnc1 [N-Methyl-N-phenylpropyl-3-picolylamine]
[6]; [9]
  IC50: 36 µM
[7]; [8]
  IC50: 34 µM

## Oc1ccc(-c2cncc(CN3CCCC3)c2)cc1 [5-(4-hydroxyphenyl)-3-(N-pyrrolidinomethyl)pyridine]
[6]; [9]
  IC50: > 10 µM
[7]; [8]
  IC50: 0.082 µM
[1]; [10]
  3H-Dopamine, Striatum, percent fractional release: 4.32%
[2]; [11]
  3H-Dopamine, Olfactory Tubercles, percent fractional release: 6.12%
[3]; [12]
  3H-Norepinephrine, Hippocampus, percent fractional release: 1.06%
[4]; [13]
  3H-Norepinephrine, Prefrontal Cortex, percent fractional release: 1.24%
[5]; [14]
  3H-Norepinephrine, Thalamus, percent fractional release: 2.36%
